Assay results published in PubChem BioAssay AID1918947 (Molecular Pharmacology Branch, DTP, NCI, 2023).
Values joined by “and” are separate entries in the source; they are usually repeats but may differ in a detail not shown here. Identical values can stand only once.

Test system: A498 complex spheroid viability
Test: Anticancer human tumor A498 cell line growth inhibition;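 further: spheroids exposed to agents for seven days before readout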;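 on viability, T/C: 100% = DMSO vehicle-treated spheroids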
Details: for viability, T/C: stronger effect = lower value
Outline: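 Complex spheroids of tumor cells with HUVEC and human MSCs, exposed to iadademstat combined with other agents. Each agent tested in half-log steps from near clinical Cmax (else 10 microM top), DMSO ≤0.25%.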

Q: `O=C(c1cc(Cc2n[nH]c(=O)c3ccccc23)ccc1F)N1CCN(C(=O)C2CC2)CC1` was tested. Which viability, T/C (compound 0.0316 µM) did it give?
A: 99% and 102%

Q: And the viability, T/C (compound 0.1 µM)?
A: 108% and 105%

Q: What about the viability, T/C (compound 0.316 µM) of the same compound?
A: 96% and 101%

Q: What about the viability, T/C (compound 1 µM) of the same compound?
A: 102% and 101%

Q: And the viability, T/C (compound 3.16 µM)?
A: 103% and 93.4%

Q: What about the viability, T/C (compound 10 µM) of the same compound?
A: 88.9% and 84.9%

Q: What about the IC50 (curve of compound) of the same compound?
A: > 10 µM

Q: With `Nc1ncn(C2CC(O)C(CO)O2)c(=O)n1` (configuration not stated) + NC1CC1c1ccc(-c2cccc(O)c2)cc1 as the compound, how does the IC50 (curve of first compound, second compound 0.1 µM) read?
A: > 1 µM

Q: And the IC50 (curve of first compound, second compound 0.316 µM)?
A: > 1 µM

Q: And the IC50 (curve of first compound, second compound 1 µM)?
A: > 1 µM

Q: And the IC50 (curve of first compound, second compound 3.16 µM)?
A: > 1 µM

Q: And the IC50 (curve of first compound, second compound 10 µM)?
A: > 1 µM

Q: And the viability, T/C (second compound 0.1 µM, first compound 0.00316 µM)?
A: 110%

Q: What about the viability, T/C (second compound 0.1 µM, first compound 0.01 µM) of the same compound?
A: 113%

Q: What about the viability, T/C (second compound 0.1 µM, first compound 0.0316 µM) of the same compound?
A: 104%

Q: What about the viability, T/C (second compound 0.1 µM, first compound 0.1 µM) of the same compound?
A: 94.5%

Q: And the viability, T/C (second compound 0.1 µM, first compound 0.316 µM)?
A: 92.3%

Q: And the viability, T/C (second compound 0.1 µM, first compound 1 µM)?
A: 78.6%

Q: What about the viability, T/C (second compound 0.316 µM, first compound 0.00316 µM) of the same compound?
A: 118%

Q: And the viability, T/C (second compound 0.316 µM, first compound 0.01 µM)?
A: 120%

Q: And the viability, T/C (second compound 0.316 µM, first compound 0.0316 µM)?
A: 107%

Q: What about the viability, T/C (second compound 0.316 µM, first compound 0.1 µM) of the same compound?
A: 97.1%

Q: And the viability, T/C (second compound 0.316 µM, first compound 0.316 µM)?
A: 93.1%

Q: And the viability, T/C (second compound 0.316 µM, first compound 1 µM)?
A: 68.5%

Q: What about the viability, T/C (second compound 1 µM, first compound 0.00316 µM) of the same compound?
A: 113%

Q: And the viability, T/C (second compound 1 µM, first compound 0.01 µM)?
A: 114%

Q: And the viability, T/C (second compound 1 µM, first compound 0.0316 µM)?
A: 110%

Q: What about the viability, T/C (second compound 1 µM, first compound 0.1 µM) of the same compound?
A: 95.7%

Q: And the viability, T/C (second compound 1 µM, first compound 0.316 µM)?
A: 86.1%

Q: And the viability, T/C (second compound 1 µM, first compound 1 µM)?
A: 67.3%

Q: What about the viability, T/C (second compound 3.16 µM, first compound 0.00316 µM) of the same compound?
A: 112%

Q: What about the viability, T/C (second compound 3.16 µM, first compound 0.01 µM) of the same compound?
A: 114%

Q: What about the viability, T/C (second compound 3.16 µM, first compound 0.0316 µM) of the same compound?
A: 110%

Q: And the viability, T/C (second compound 3.16 µM, first compound 0.1 µM)?
A: 95.4%

Q: What about the viability, T/C (second compound 3.16 µM, first compound 0.316 µM) of the same compound?
A: 75.6%

Q: What about the viability, T/C (second compound 3.16 µM, first compound 1 µM) of the same compound?
A: 63.2%

Q: And the viability, T/C (second compound 10 µM, first compound 0.00316 µM)?
A: 107%

Q: And the viability, T/C (second compound 10 µM, first compound 0.01 µM)?
A: 100%

Q: What about the viability, T/C (second compound 10 µM, first compound 0.0316 µM) of the same compound?
A: 105%

Q: And the viability, T/C (second compound 10 µM, first compound 0.1 µM)?
A: 101%

Q: And the viability, T/C (second compound 10 µM, first compound 0.316 µM)?
A: 80.2%

Q: What about the viability, T/C (second compound 10 µM, first compound 1 µM) of the same compound?
A: 60.4%
